For assay [1], the target named is isocitrate dehydrogenase 1 (IDH1) (Homo sapiens, UniProt O75874, D273L/R132H). The experiment in a line: isothermal titration calorimetry. In kind it is binding. (Isothermal titration calorimetry measures the heat released or taken up as one component is titrated into another.)
Assay [2] has as its target isocitrate dehydrogenase 1 (IDH1) (Homo sapiens, UniProt O75874, D273N). The experiment in a line: steady-state kinetics, NADPH absorbance at […] nm. In kind it is biochemical.
Assay [3] concerns the target isocitrate dehydrogenase 1 (IDH1) (Homo sapiens, UniProt O75874). The experiment in a line: steady-state kinetics, NADPH absorbance at […] nm. Format: biochemical.
For assay [4], the target named is isocitrate dehydrogenase 1 (IDH1) (Homo sapiens, UniProt O75874, K217Q). Put plainly: steady-state kinetics, NADPH absorbance at […] nm. In kind it is biochemical.
The target in assay [5] is isocitrate dehydrogenase 1 (IDH1) (Homo sapiens, UniProt O75874, D273L). Put plainly: steady-state kinetics, NADPH absorbance at […] nm. In kind it is biochemical.
The target in assay [6] is isocitrate dehydrogenase 1 (IDH1) (Homo sapiens, UniProt O75874, K217M). The experiment in a line: steady-state kinetics, NADPH absorbance at […] nm. In kind it is biochemical.
Assay [7] concerns the target isocitrate dehydrogenase 1 (IDH1) (Homo sapiens, UniProt O75874, D273S). Put plainly: steady-state kinetics, NADPH absorbance at […] nm. Format: biochemical.

Broadly, the Kd is a measure of binding affinity in units of concentration. A high value points to a looser complex. The Km is the substrate concentration at which the rate is half of its maximum.

Sequence of isocitrate dehydrogenase 1 (IDH1) (Homo sapiens, UniProt O75874, K217Q) (O75874 2-414 K217Q): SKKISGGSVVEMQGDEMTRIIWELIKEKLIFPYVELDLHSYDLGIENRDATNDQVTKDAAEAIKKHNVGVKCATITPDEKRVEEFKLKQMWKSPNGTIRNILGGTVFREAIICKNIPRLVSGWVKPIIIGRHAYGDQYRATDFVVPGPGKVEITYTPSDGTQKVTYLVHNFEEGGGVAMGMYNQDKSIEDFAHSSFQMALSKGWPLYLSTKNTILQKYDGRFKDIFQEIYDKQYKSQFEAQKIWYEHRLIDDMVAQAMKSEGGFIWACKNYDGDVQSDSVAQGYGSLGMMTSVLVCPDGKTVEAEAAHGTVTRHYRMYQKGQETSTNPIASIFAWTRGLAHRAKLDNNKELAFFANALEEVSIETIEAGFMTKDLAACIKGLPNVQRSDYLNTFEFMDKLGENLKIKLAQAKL
Sequence of isocitrate dehydrogenase 1 (IDH1) (Homo sapiens, UniProt O75874) (O75874 2-414): as the sequence (O75874 2-414 K217Q) above, with Q216K counted along it
Sequence of isocitrate dehydrogenase 1 (IDH1) (Homo sapiens, UniProt O75874, D273L/R132H) (O75874 2-414 R132H/D273L): as the sequence (O75874 2-414 K217Q) above, with R131H, Q216K, D272L counted along it
Sequence of isocitrate dehydrogenase 1 (IDH1) (Homo sapiens, UniProt O75874, D273N) (O75874 2-414 D273N): as the sequence (O75874 2-414 K217Q) above, with Q216K, D272N counted along it
Sequence of isocitrate dehydrogenase 1 (IDH1) (Homo sapiens, UniProt O75874, K217M) (O75874 2-414 K217M): as the sequence (O75874 2-414 K217Q) above, with Q216M counted along it
Sequence of isocitrate dehydrogenase 1 (IDH1) (Homo sapiens, UniProt O75874, D273S) (O75874 2-414 D273S): as the sequence (O75874 2-414 K217Q) above, with Q216K, D272S counted along it
Sequence of isocitrate dehydrogenase 1 (IDH1) (Homo sapiens, UniProt O75874, D273L) (O75874 2-414 D273L): as the sequence (O75874 2-414 K217Q) above, with Q216K, D272L counted along it

Consider `Cc1ccccc1C(C(=O)NC1CCCCC1)N(C(=O)Cn1ccnc1C)c1cccc(F)c1` (stereo not shown) [AGI-5198], for which binding in assay [1] was put at a Kd of 3.3 ± 0.5 µM.
As for `O=C(O)CC(C(=O)O)C(O)C(=O)O` (stereo not shown) [isocitrate], the Km turned out to be 19 ± 2 mM in assay [2]; 61 ± 5 µM in assay [3]; 250 ± 20 µM in assay [4]; 1.9 ± 0.2 mM in assay [5]; 150 ± 20 µM in assay [6]; 12 ± 3 mM in assay [7].
